Source: patent publication US9249345B2, “Concentrate for medical solutions, production thereof and use thereof in dialysis” (FRESENIUS MEDICAL CARE DEUTSCHLAND GMBH, priority 2010, dated 2016)

Assays:
Type in all cases: physicochemical
[1] = Caking behaviour of concentrates in containers stored in climate chamber, Examples 2-4; details: Example 4; 40° C., 75% relative humidity, 6 months
Text: The container comprised of film material without appreciable gas-barrier properties is depicted on the left of FIG. 1. […] The container shown on the right of FIG. 1 comprised the same materials. Additionally, said film comprised a gas-barrier layer of silicon oxide. The gas permeability of said film was below 20 cm^3/(m^2·d·bar) for CO2, as measured in accordance with DIN 53380—part 4. […] 1.
The stability of a concentrate comprised of components according to the invention versus conventional components was tested. […] It was assumed that the crystal water of the glucose in conjunction with sodium chloride caused caking.

[2] = Water uptake into concentrate container without gas barrier, Example 6; details: 40° C., 75% relative humidity; for water uptake into the concentrate container (water content in percent by weight): after about 26 weeks; for water uptake: period of 6 months
Method: The water uptake into a concentrate container without a gas barrier, comprising MgCl2×6H2O or alkaline magnesium carbonate, 4MgCO3×Mg(OH)2×5H2O respectively, was compared. The concentrate containers were each exposed in the climate chamber to 40° C. and 75% relative humidity for several weeks. […] The time in weeks is plotted on the abscissa. The water content in percent by weight is plotted on the ordinate.

[3] = Storage of MgCl2×6H2O in gas-permeable concentrate container in climate chamber, Example 5; details: 40° C., 75% relative humidity, 6 months
Method: MgCl2×6H2O was stored in the climate chamber at 40° C. and 75% relative humidity in a gas-permeable concentrate container.

Row | caking [1] | water uptake into the concentrate container (water content in percent by weight) [2] | water uptake [2] | physical state after storage [3] | Compound
1 | does not promote caking |  |  |  | OC[C@H]1OC(O)[C@H](O)[C@@H](O)[C@@H]1O (stereo partly drawn) [anhydrous glucose]
2 |  | no water uptake | did not absorb any water |  | alkaline magnesium carbonate, 4MgCO3×Mg(OH)2×5H2O
3 |  | ~24% | significant water uptake | liquefied | O.O.O.O.O.O.[Cl-].[Cl-].[Mg+2] [MgCl2×6H2O, magnesium chloride with crystal water, MgCl2×6H2O]
